Assay results published in BindingDB's records for patent US10941160 (Celgene Quanticel Research, 2021).

Molecular target: Bromodomain-containing protein 4 (Homo sapiens, UniProt O60885)
Assay: In Vitro Enzyme Inhibition Assay
Description: His-tagged BRD4 was cloned, expressed and purified to homogeneity. BRD4 binding and inhibition was assessed by monitoring the interaction of biotinylated H4-tetraacetyl peptide (AnaSpec, H4K5/8/12/16(Ac), biotin-labeled) with the target using the AlphaScreen technology ([…]). […] After 20 min incubation at room temp, Alpha streptavidin donor beads and Nickel Chelate acceptor beads were added to a final concentration of 5 μg/mL.

| Structure (SMILES) | IC50 |
| --- | --- |
| Cn1cc(-c2cccc(S(O)(O)NC3CC3)c2)c2ccccc2c1=O [US10941160, Example 6] | in the range around 2750 nM |
| CCNS(O)(O)c1cccc(-c2cn(C)c(=O)c3cnccc23)c1 [US10941160, Example 53] | in the range around 2750 nM |
| Cn1cc(-c2cccc(S(N)(O)O)c2)c2ccc(F)cc2c1=O [US10941160, Example 61] | < 500 nM |
| CCS(O)(O)c1ccc(O)c(-c2cn(C)c(=O)c3ccc(-c4cnn(C)c4)cc23)c1 [US10941160, Example 80] | < 500 nM |
| CCS(O)(O)c1ccc(OCC2CC2)c(-c2cn(C)c(=O)c3ccc(-c4cnn(C)c4)cc23)c1 [US10941160, Example 82] | < 500 nM |
| CCS(O)(O)c1ccc(Oc2ccc(F)cc2F)c(-c2cc(F)c(=O)n(C)c2)c1 [US10941160, Example 121] | < 500 nM |
| CCS(O)(O)c1cccc(-c2cn(C)c(=O)c3cncn23)c1 [US10941160, Example 133] | > 5000 nM |
| CCS(O)(O)c1ccc(OCC2CC2)c(-c2cn(C)c(=O)c3ccc(F)cc23)c1 [US10941160, Example 174] | < 500 nM |
| CCS(O)(O)c1ccc(NCC2CC2)c(-c2cn(C)c(=O)c3ccccc23)c1 [US10941160, Example 193] | < 500 nM |
| CCS(O)(O)c1ccc(OCC2CC2)c(-c2cn(C)c(=O)c3ccccc23)n1 [US10941160, Example 206] | < 500 nM |
| CCS(O)(O)c1ccc(OC)c(-c2cn(C)c(=O)c3ccc(-c4cn[nH]c4)cc23)c1 [US10941160, Example 210] | < 500 nM |
| CCS(O)(O)c1ccc(OCC2CC2)c(-c2cn(C)c(=O)c3c2CCCC3)c1 [US10941160, Example 219] | < 500 nM |
| CCCOc1ccc(S(O)(O)CC)cc1-c1cn(C)c(=O)c2cnc(-c3cnn(C)c3)nc12 [US10941160, Example 225] | < 500 nM |
| CCOc1ccc(S(O)(O)CC)cc1-c1cn(C)c(=O)c2cnc(-c3cnn(C)c3)nc12 [US10941160, Example 227] | < 500 nM |
| CCS(O)(O)c1ccc(OCC2CC2)c(-c2cn(C)c(=O)c3cncnc23)c1 [US10941160, Example 232] | < 500 nM |
| CCS(O)(O)c1ccc(OCC2CC2)c(-c2cc(C)c(=O)n(C3CC3)c2)c1 [US10941160, Example 251] | < 500 nM |

| Structure (SMILES) | IC50 |
| --- | --- |
| CCS(O)(O)c1ccc(OCC2CC2)c(-c2cn(C)c(=O)c3occc23)c1 [US10941160, Example 252] | < 500 nM |
| CCS(O)(O)c1ccc(OCC2CC2)c(-c2cn(C)c(=O)c3oc(C)cc23)c1 [US10941160, Example 270] | < 500 nM |
| CCS(O)(O)c1ccc(OCC2CC2)c(-c2cc(Cl)c(=O)n(C)c2)c1 [US10941160, Example 272] | < 500 nM |
| CCS(O)(O)c1ccc(OCC2CC2)c(-c2cc(C3CC3)c(=O)n(C)c2)c1 [US10941160, Example 280] | < 500 nM |
| CCS(O)(O)c1ccc(OCC2CC2)c(-c2cc(OCC(F)(F)F)c(=O)n(C)c2)c1 [US10941160, Example 288] | < 500 nM |
| CCS(O)(O)c1cnc(OCC2CC2)c(-c2cn(C)c(=O)c3ccccc23)c1 [US10941160, Example 322] | < 500 nM |
| CCCCc1cnc(NS(O)(O)CC)nc1-c1cc(OC)c(=O)n(C)c1 [US10941160, Example 362] | < 500 nM |
| CC(C)S(O)(O)c1ccc(OCC2CC2)c(-c2cn(C)c(=O)c3ccccc23)c1 [US10941160, Example 364] | < 500 nM |
| CCS(O)(O)c1ccc(OCC2CC2)c(-c2cn(C)c(=O)c3cncn23)c1 [US10941160, Example 368] | < 500 nM |
| CCS(O)(O)c1ccc(OC2CCCC2)c(-c2cn(C)c(=O)c3cncn23)c1 [US10941160, Example 374] | < 500 nM |
| CC#CCOc1ccc(S(O)(O)CC)cc1-c1cc(OC)c(=O)n(C)c1 [US10941160, Example 389] | < 500 nM |
| CCS(O)(O)c1ccc(OCC#CC2CC2)c(-c2cc(OC)c(=O)n(C)c2)c1 [US10941160, Example 391] | < 500 nM |
| CCS(O)(O)Nc1cc(OCc2ccccc2)cc(-c2cc(C)c(=O)n(C)c2)c1 [US10941160, Example 395] | < 500 nM |
| CCS(O)(O)c1ccc(NCC2CC2)c(-c2cc(NC)c(=O)n(C)c2)c1 [US10941160, Example 408] | < 500 nM |
| CCS(O)(O)c1ccc(OCC2CC2)c(-c2cc(NC)c(=O)n(C)c2)c1 [US10941160, Example 409] | < 500 nM |

The remaining lines, values ahead:

| IC50 | Structure (SMILES) |
| --- | --- |
| in the range around 2750 nM | COc1ccc(-c2cn(C)c(=O)c3ccccc23)cc1S(N)(O)O [US10941160, Example 16] |
| > 5000 nM | COc1ccc(-c2cn(C)c(=O)c3cnccc23)cc1S(O)(O)NCc1ccccc1 [US10941160, Example 54] |
| > 5000 nM | Cn1cc(-c2cccc(S(N)(O)O)c2)c2ccncc2c1=O [US10941160, Example 55] |
| > 5000 nM | COc1ccc(-c2cn(C)c(=O)c3cnccc23)cc1S(N)(O)O [US10941160, Example 56] |
| in the range around 2750 nM | CCNS(O)(O)c1cccc(-c2cn(C)c(=O)c3cc(F)ccc23)c1 [US10941160, Example 59] |
| > 5000 nM | CCS(O)(O)c1cccc(-c2cn(C)c(=O)c(N)n2)c1 [US10941160, Example 105] |
| > 5000 nM | CCS(O)(O)c1cccc(-c2cc(N)c(=O)n(C)c2)c1 [US10941160, Example 108] |
| < 500 nM | CCOc1ccc(S(N)(O)O)cc1-c1ccc(=O)n(C)c1 [US10941160, Example 117] |
| < 500 nM | Cn1cc(-c2cc(S(N)(O)O)ccc2Oc2ccc(F)cc2F)ccc1=O [US10941160, Example 118] |
| > 5000 nM | CCS(O)(O)c1cccc(-c2cn(C)c(=O)c3ccncc23)c1 [US10941160, Example 126] |
| < 500 nM | CCS(O)(O)c1ccc(OCC2CC2)c(-c2cn(C)c(=O)c3ccccc23)c1 [US10941160, Example 135] |
| < 500 nM | Cn1cc(-c2nc(N3CCC[SH]3(=O)O)ncc2OCC2CC2)c2ccccc2c1=O [US10941160, Example 156] |
| < 500 nM | CC#CCOc1ccc(S(O)(O)CC)cc1-c1cn(C)c(=O)c2ccccc12 [US10941160, Example 185] |
| < 500 nM | CCS(O)(O)c1ccc(NCC2CC2)c(-c2cn(C)c(=O)c3cc(F)ccc23)c1 [US10941160, Example 195] |
| < 500 nM | COc1ccc(S(O)(O)CCO)cc1-c1cn(C)c(=O)c2ccc(-c3cnn(C)c3)cc12 [US10941160, Example 208] |
| < 500 nM | CCS(O)(O)c1ccc(OCC2CC2)c(-c2cn(C)c(=O)c3cnc(-c4cnn(C)c4)nc23)c1 [US10941160, Example 226] |
| < 500 nM | CCS(O)(O)c1ccc(OCC2CC2)c(-c2cn(C)c(=O)c3sc(C(N)=O)cc23)c1 [US10941160, Example 265] |
| < 500 nM | CCS(O)(O)c1ccc(OCC2CC2)c(-c2cc(F)c(=O)n(C)c2)c1 [US10941160, Example 274] |

| IC50 | Structure (SMILES) |
| --- | --- |
| < 500 nM | C#Cc1cc(-c2cc(S(O)(O)CC)ccc2OCC2CC2)cn(C)c1=O [US10941160, Example 284] |
| < 500 nM | CCS(O)(O)c1ccc(OCC2CC2)c(-c2cc(OC(F)F)c(=O)n(C)c2)c1 [US10941160, Example 287] |
| < 500 nM | CCCCc1cnc(NS(O)(O)CC)nc1-c1cc(C)c(=O)n(C)c1 [US10941160, Example 310] |
| < 500 nM | CCS(O)(O)Nc1cc(Oc2ccc(F)cc2F)cc(-c2cc(C)c(=O)n(C)c2)c1 [US10941160, Example 342] |
| < 500 nM | CCS(O)(O)c1ccc(OCC2CC2)c(-c2cn(C)c(=O)c3c2OCCN3)c1 [US10941160, Example 366] |
| < 500 nM | CCS(O)(O)c1ccc(OC2CCC(F)(F)CC2)c(-c2cn(C)c(=O)c3cncn23)c1 [US10941160, Example 373] |
| < 500 nM | CCS(O)(O)c1ccc(NCC2CC2)c(-c2cn(C)c(=O)c3cncn23)c1 [US10941160, Example 375] |
| < 500 nM | CCS(O)(O)c1ccc(Oc2ccc(F)cc2F)c(-c2cn(C)c(=O)c3cncn23)c1 [US10941160, Example 376] |
| < 500 nM | CCS(O)(O)c1ccc(OCC2CC2)c(-c2cn(C)c(=O)c3ccoc23)c1 [US10941160, Example 378] |
| < 500 nM | CCC#CCOc1ccc(S(O)(O)CC)cc1-c1cc(OC)c(=O)n(C)c1 [US10941160, Example 390] |
| < 500 nM | COc1ccc2c(=O)n(C)cc(-c3cc(S(O)(O)C(C)C)ccc3OCC3CC3)c2c1 [US10941160, Example 393] |
| < 500 nM | Cc1cc(-c2cc(S(O)(O)C(C)C)ccc2OCC2CC2)cn(C)c1=O [US10941160, Example 394] |
| < 500 nM | CCS(O)(O)c1ccc(Nc2ccc(F)cc2F)c(-c2cc(C)c(=O)n(C)c2)c1 [US10941160, Example 396] |
| < 500 nM | CCS(O)(O)c1ccc(NC2CCC(F)(F)CC2)c(-c2cc(C)c(=O)n(C)c2)c1 [US10941160, Example 397] |
| < 500 nM | CCS(O)(O)c1ccc(OCC2CC2)c(-c2cc(OC)c(=O)n(C)c2)c1 [US10941160, Example 399] |
| < 500 nM | CCS(O)(O)Cc1ccc(OCC(F)(F)F)c(-c2cc(C)c(=O)n(C)c2)c1 [US10941160, Example 411] |
| < 500 nM | CCS(O)(O)c1ccc(NCC2CC2)c(-c2cc(OC)c(=O)n(C)c2)c1 [US10941160, Example 414] |
